Measured values as given in paper PMC13342671 (Nature Communications, 2026).

Experiments:
Type in all cases: cell-based, Human
[1] = system: p53 pathway genes in BxPC-3 cells; assay: RNA sequencing / GSEA in BxPC-3 cells; conditions: 3 µM, 4 h
A549-p53^Y220C cells [2] = assay: Apoptosis FACS; conditions: 3 µM
A549-p53^Y220C cells [3] = assay: SA-β-galactosidase senescence stain; conditions: 3 µM, 6-day treatment

SMILES | share of the top 116 p53 target genes with significantly increased expression [1] [%] | apoptosis induction (in words) (A549-p53^Y220C cells [2]) | SA-β-gal senescence staining (in words) (A549-p53^Y220C cells [3])
CCn1c2ccc(CNCCOCCOCCOCCn3cc(COc4ccc(CCc5nc6cc(-c7c(C)noc7C)ccc6n5CCN5CCOCC5)cc4F)nn3)cc2c2ccc(-c3cc(C)cs3)cc21 [MS78] | 22.8 | – | –
Cc1sc2c(c1C)C(c1ccc(Cl)cc1)=N[C@@H](CC(=O)OC(C)(C)C)c1nnc(C)n1-2 [JQ1] | 57.0 | slightly less apoptosis | relatively few senescent cells
